The values that follow come from patent publication US20030073699A1, “Compounds and methods to treat cardiac failure and other disorders” (priority 1998, published 2003).

As a reminder, the IC50 is the concentration that gives 50% inhibition.

Holding throughout (type): biochemical
Assay [1] concerns the target p38α (Homo sapiens, UniProt Q16539). Briefly: p38 kinase inhibition assay, activity for p38α. The following applies: for IC50: inhibition of p38α, based on IC50 curves; for Fold increase Piperidinyl/Piperazinyl: p38α potency of piperidinyl versus corresponding piperazinyl compound.
The target of assay [2] is p38β (Homo sapiens, UniProt Q15759). The assay is described as follows: p38 kinase inhibition assay, specificity versus p38β. The conditions noted are these: for IC50: read-out: P38-β IC50; for IC50 ratio β/α: specificity for p38α as compared to p38β. How it is done: (§1) The compounds to be tested were solubilized in DMSO and diluted into water to the desired concentrations. The p38 kinase was diluted to 10 μg/ml into a buffer containing 20 mM MOPS, pH 7.0,25 mM beta-glycerol phosphate, 2 mg/ml gelatin; 0.5 mM EGTA, and 4 mM DTT.
(§2) The reaction was carried out by mixing 20 μl test compound with 10 μl of a substrate cocktail containing 500 μg/ml peptide substrate and 0.2 mM ATP (+200 μCi/ml gamma-32P-ATP) in a 4× assay buffer. The reaction was initiated by the addition of 10 μl of p38 kinase. […] After a 40 minute incubation at room temperature, the reaction was stopped by the addition of 10 μl per reaction of 0.25 M phosphoric acid.
A portion of the reaction was spotted onto a disk of P81 phosphocellulose paper, the filters were dried for 2 minutes and then washed 4× in 75 mM H3PO4. The filters were rinsed briefly in 95% ethanol, dried, then placed in scintillation vials with liquid scintillation cocktail.
Alternatively, the substrate is previously biotinylated and the resulting reactions are spotted on SAM^2™ streptavidin filter squares (Promega). The filters are washed 4× in 2M NaCl, 4× in 2M NaCl with 1% phosphoric acid, 2× in water, and briefly in 95% ethanol. The filter squares are dried and placed in scintillation vials with liquid scintillation cocktail.
Counts incorporated are determined on a scintillation counter. Relative enzyme activity is calculated by subtracting background counts (counts measured in the absence of enzyme) from each result, and comparing the resulting counts to those obtained in the absence of inhibitor. IC50 values were determined with curve-fitting plots available with common software packages. Approximate IC50 values were calculated using formula
where A=fractional activity and i=total inhibitor concentration.
The compounds of the invention as well as those containing piperazine, generally, are specific for p38α as compared to p38β. […] It is seen that the specificity for α as opposed to β is generally of the order of ten-fold.

Assay [3] has as its target p38 kinase (Homo sapiens, UniProt Q16539). Briefly: Assay for p38 kinase inhibition (Example 19). The conditions noted are these: tested as described in Example 19. How it is done: as §1, §2
A portion of the reaction was spotted onto a disk of P81 phosphocellulose paper, the filters were dried for 2 minutes and then washed 4× in 75 mM H3PO4. The filters were rinsed briefly in 95% ethanol, dried, then placed in scintillation vials with liquid scintillation cocktail. […]
Counts incorporated are determined on a scintillation counter. Relative enzyme activity is calculated by subtracting background counts (counts measured in the absence of enzyme) from each result, and comparing the resulting counts to those obtained in the absence of inhibitor. IC50 values were determined with curve-fitting plots available with common software packages. Approximate IC50 values were calculated using formula […]

Chain of p38α (Q16539 whole entry): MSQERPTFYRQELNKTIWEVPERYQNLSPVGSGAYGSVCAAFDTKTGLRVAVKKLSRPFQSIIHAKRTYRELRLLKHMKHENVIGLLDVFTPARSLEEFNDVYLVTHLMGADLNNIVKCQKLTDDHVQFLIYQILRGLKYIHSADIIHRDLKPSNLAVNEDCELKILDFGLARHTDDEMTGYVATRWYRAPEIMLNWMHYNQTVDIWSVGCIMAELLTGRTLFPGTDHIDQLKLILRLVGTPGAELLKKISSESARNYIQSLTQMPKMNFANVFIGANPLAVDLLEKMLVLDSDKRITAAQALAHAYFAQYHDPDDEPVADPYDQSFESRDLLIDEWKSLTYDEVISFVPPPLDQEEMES
Chain of p38β (Q15759 whole entry): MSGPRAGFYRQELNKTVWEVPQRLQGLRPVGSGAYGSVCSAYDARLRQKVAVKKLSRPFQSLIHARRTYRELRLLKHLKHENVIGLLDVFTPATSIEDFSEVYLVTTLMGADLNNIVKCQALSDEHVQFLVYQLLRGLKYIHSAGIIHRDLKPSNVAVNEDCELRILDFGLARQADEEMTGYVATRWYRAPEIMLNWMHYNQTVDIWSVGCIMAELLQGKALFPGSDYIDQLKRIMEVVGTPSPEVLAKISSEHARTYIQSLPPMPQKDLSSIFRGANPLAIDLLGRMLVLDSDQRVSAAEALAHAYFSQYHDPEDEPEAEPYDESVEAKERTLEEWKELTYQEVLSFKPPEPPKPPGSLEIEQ
Chain of p38 kinase (Q16539 whole entry): as the sequence (Q16539 whole entry) above

For `O=C(c1cc2ccccc2[nH]1)N1CCC(Cc2ccccc2)CC1` [Piperidinyl 2], the half-maximal inhibitory concentration (IC50) in assay [1] turned out to be 2.66 µM.

In the case of `O=C(c1c[nH]c2ccccc12)N1CCN(Cc2ccccc2)CC1` [Piperazinyl 3, reference compound], half-maximal inhibition in assay [1] (IC50) required 4.74 µM. Further, in assay [2], the half-inhibitory concentration (IC50) came to 34 µM and the “IC50 ratio β/α” value is 7.17.

In the case of `O=C(c1cccc2[nH]ccc12)N1CCN(Cc2ccccc2)CC1` [Piperazinyl 4, reference compound], the 50% inhibitory concentration (IC50) in assay [1] stood at 1.54 µM. In assay [2], the IC50 turned out to be 24 µM and the “IC50 ratio β/α” value came out at 15.6.

As to `O=C(c1cccc2[nH]ccc12)N1CCC(Cc2ccccc2)CC1` [Piperidinyl 4, 4-benzylpiperidinyl-indoie-4-carboxamide], in assay [1], it took 0.159 µM to reach half-maximal inhibition (IC50) and the “Fold increase Piperidinyl/Piperazinyl” value came to 9.7. Further, in assay [2], the IC50 was found to be 2.43 µM and the “IC50 ratio β/α” value is 15.3.

Turning to `O=C(c1c[nH]c2ccccc12)N1CCC(Cc2ccccc2)CC1` [Piperidinyl 3], in assay [1], the IC50 was found to be 0.163 µM and the “Fold increase Piperidinyl/Piperazinyl” value stood at 29.1. For the same compound, in assay [2], the IC50 is 1.77 µM and the “IC50 ratio β/α” value is 10.9.

Regarding `O=C(c1cccc2cc[nH]c12)N1CCC(Cc2ccccc2)CC1` [Piperidinyl 7], in assay [1], the 50% inhibitory concentration (IC50) came to 7.04 µM and the “Fold increase Piperidinyl/Piperazinyl” value is greater than 4.3.

For `CC1CC(Cc2ccccc2)CCN1C(=O)c1ccc2[nH]ccc2c1` (stereo not shown) [Example 18], in assay [3], the IC50 is 0.28 µM.

For the compound `O=C(c1ccc2[nH]ccc2c1)N1CCC(Cc2ccccc2)CC1` [Piperidinyl 5, 4-benzylpiperidinyl-indole-5-carboxamide], the IC50 was 0.15 µM in assay [1] and 3.02 µM in assay [2].

Take `O=C(c1ccc2cc[nH]c2c1)N1CCC(Cc2ccccc2)CC1` [Piperidinyl 6, 4-benzylpiperidinyl-indole-6-carboxamide]: the concentration for half-maximal inhibition (IC50) in assay [2] turned out to be 3.83 µM.

In the case of “4-(4-benzyl piperazinyl)-indole-2-carboxamide [Piperazinyl 2]”, the half-maximal inhibitory concentration (IC50) in assay [1] was greater than 30 µM.

In assay [1], `O=C(c1cccc2cc[nH]c12)N1CCN(Cc2ccccc2)CC1` [Piperazinyl 7] showed a concentration for half-maximal inhibition (IC50) greater than 30 µM.

Consider `O=C(c1ccc2[nH]ccc2c1)N1CCN(Cc2ccccc2)CC1` [Piperazinyl 5], for which, in assay [2], the IC50 turned out to be 25.8 µM and the “IC50 ratio β/α” value was determined as 15.1.

Take `O=C(c1ccc2cc[nH]c2c1)N1CCN(Cc2ccccc2)CC1` [Piperazinyl 6]: the half-maximal inhibitory concentration (IC50) in assay [1] was 5.52 µM. In addition, in assay [2], the IC50 is 39.1 µM and the “IC50 ratio β/α” value worked out at 7.08.
